From US20210207070A1, “A CELL CULTURING PLATFORM, A CELL CULTURE SYSTEM, AND A METHOD FOR MODELING NEURAL ACTIVITY IN VITRO” (Tampere University Foundation sr, priority 2018, published 2021)

Test system: neurons
Assay: Activity of neurons in the closed-loop cell culturing platform, measured with electrodes in the guiding tunnels
Format: cell-based
Settings: kainate acid added to the compartment Area 1; FIG. 5c
Text: FIGS. 5a and 5b illustrate activity of neurons in a cell culturing platform according to an exemplifying and non-limiting embodiment. FIG. 5a illustrates signals measured with electrodes in the compartments of the cell culturing platform. The compartments are denoted with references ‘Area 1’, ‘Area 2’, and ‘Area 3’. As shown by black arrows in FIG. 5a, there is synchronous activity in the compartments Area 1, Area 2, and Area 3. […] of the cell culturing platform. The signals measured with electrodes in the guiding tunnels between the compartments Area 2 and Area 3 are denoted with a reference ‘2-3’, the signals measured with electrodes in the guiding tunnels between the compartments Area 1 and Area 2 are denoted with a reference ‘1-2’, and the signals measured with electrodes in the guiding tunnels between the compartments Area 3 and Area 1 are denoted with a reference ‘3-1’. As shown by black arrows in FIG. 5b, there is synchronous activity in the guiding tunnels between different pairs of the compartments.
FIG. 5c illustrates an effect of adding kainate acid to the compartment Area 1.

C=C(C)[C@H]1CN[C@H](C(=O)O)[C@H]1CC(=O)O [kainate acid]
activity measured with electrodes in the guiding tunnels between the compartments Area 1 and Area 2: increases the activity | activity measured with electrodes in the guiding tunnels between the compartments Area 2 and Area 3: substantially on the base level | activity measured with electrodes in the guiding tunnels between the compartments Area 3 and Area 1: increases the activity
